The record followed here is ChEMBL document CHEMBL1143433, “Interaction of kendomycin and semi-synthetic analogues with the anti-apoptotic protein Bcl-xl” (Bioorg Med Chem Lett, 2008).

The nature of series [1]: Chemical stability assessed as half life by HPLC. Type of series: physicochemical.
Series [2] concerns the target T1, Bcl-2-like protein 1 (Homo sapiens, UniProt Q07817). The series can be described thus: Inhibition of interaction between GST-tagged Bcl-xl and Bak by fluorescence polarization assay. A general note: Fluorescence polarisation rises when a labelled molecule tumbles more slowly, as on binding a larger partner.
Another series concerns A549. The series can be described thus: Cytotoxicity against human A549 cells. Type of series: functional, cell-based.
Series [3] concerns the target T1, Bcl-2-like protein 1. The series can be described thus: Inhibition of interaction between GST-tagged Bcl-xl and Bak by surface plasmon resonance assay. (Surface plasmon resonance follows binding to a sensor surface in real time, without labels.)
The target of series [4] is T1, Bcl-2-like protein 1. Put plainly: Inhibition of interaction between Bcl-xl and Bak by surface plasmon resonance assay.
Another series concerns Staphylococcus aureus. Put plainly: Antibacterial activity against methicillin-resistant Staphylococcus aureus STA MU50. Type of series: functional.
The test system of a further series is HepG2. The series can be described thus: Cytotoxicity against human HepG2 cells. Type of series: functional.

≈ marks a conversion by molar mass, not a printed value.

For orientation: half-life means the time in which the quantity being followed falls by half. In general, Emax refers to the size of the effect at its maximum, as opposed to the concentration needed. By IC50 is commonly meant the concentration that gives 50% inhibition. For orientation: Kd means the concentration at which binding is half-saturated. As usually defined, the MIC is the least concentration at which growth counts as inhibited. Low values mean a more susceptible organism, high ones a less susceptible organism. One may read the GI50 as the concentration at which growth is held to half of that of the control.

T1 sequence (Q07817 whole entry): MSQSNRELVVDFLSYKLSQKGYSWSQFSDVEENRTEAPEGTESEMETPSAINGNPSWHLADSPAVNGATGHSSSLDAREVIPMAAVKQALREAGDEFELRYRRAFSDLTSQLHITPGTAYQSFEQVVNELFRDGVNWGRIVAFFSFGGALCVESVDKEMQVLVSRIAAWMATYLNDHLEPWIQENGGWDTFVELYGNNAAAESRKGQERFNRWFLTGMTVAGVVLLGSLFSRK

Consider `CC1=C2O[C@]34OC5(CCN(C)CC5)O[C@@H]3C2=C(C(=O)C1=O)[C@@H]1O[C@H](CC[C@H](C)/C=C(\C)C[C@@H](C)C[C@@H]4C)[C@H](C)[C@H](O)[C@H]1C`, for which the half-life in series [1] was less than 23 h. At Bcl-2-like protein 1 [2], the maximal response (Emax) was 66%. Also, the half-inhibitory concentration (IC50) at Bcl-2-like protein 1 [2] (read-out: IC50) stood at 5 µM; in the series on A549, 14 µM. The equilibrium dissociation constant (Kd) at Bcl-2-like protein 1 [3] is 377 µM; at Bcl-2-like protein 1 [4] (read-out: Kd), 399 µM.
With `CC1=C2O[C@]3(O)C=C2C(=C(O)C1=O)[C@@H]1O[C@H](CC[C@H](C)/C=C(\C)C[C@@H](C)C[C@@H]3C)[C@H](C)[C@H](O)[C@H]1C` [KENDOMYCIN], in the series with Staphylococcus aureus, the minimum inhibitory concentration (MIC) came out at 3.9 µM (≈ 1.9 µg/mL). In the series with HepG2, this molecule returned a GI50 of less than 0.1 µM. Besides, the half-life in series [1] was less than 2 h. The molecule further displayed an Emax on Bcl-2-like protein 1 [2] of 70%. Moreover, the 50% inhibitory concentration (IC50) on Bcl-2-like protein 1 [2] (read-out: IC50) amounted to 12.3 µM; with A549, 16 µM. The dissociation constant (Kd) on Bcl-2-like protein 1 [3] turned out to be 528 µM; at Bcl-2-like protein 1 [4] (read-out: Kd), 1830 µM.
Consider `Cc1cc2c(C(C)C)c(O)c(O)c(C=O)c2c(O)c1-c1c(C)cc2c(C(C)C)c(O)c(O)c(C=O)c2c1O` [GOSSYPOL], for which the results for the dissociation constant (Kd) on Bcl-2-like protein 1 [3] and on Bcl-2-like protein 1 [4] (read-out: Kd) were 1.71 µM and 338 µM, respectively.
As to `CC1=C(O)C(=O)C2=C(C1=O)C(O)C(=O)[C@@H](C)C[C@H](C)C/C(C)=C/[C@@H](C)CC[C@H]1O[C@@H]2[C@H](C)[C@@H](O)[C@H]1C` (some centres undefined), the maximal effect (Emax) on Bcl-2-like protein 1 [2] amounted to 35%. Moreover, the half-maximal inhibitory concentration (IC50) at Bcl-2-like protein 1 [2] (read-out: IC50) is 230 µM; in the series on A549, 25 µM. In addition, the Kd at Bcl-2-like protein 1 [3] is 10800 µM; at Bcl-2-like protein 1 [4], “Not Active”.
In the case of `CC1=C2O[C@]34OC(C)(C)O[C@@H]3C2=C(C(=O)C1=O)[C@@H]1O[C@H](CC[C@H](C)/C=C(\C)C[C@@H](C)C[C@@H]4C)[C@H](C)[C@H](O)[C@H]1C`, the half-life in series [1] was less than 39 h. This molecule had an Emax at Bcl-2-like protein 1 [2] of 22%. For the same molecule, the half-maximal inhibitory concentration (IC50) came out at 9.5 µM at Bcl-2-like protein 1 [2] (read-out: IC50) and 14 µM in the series with A549.
Take `CO[C@@]12C=C3C(=C(C)C(=O)C(O)=C3[C@@H]3O[C@H](CC[C@H](C)/C=C(\C)C[C@@H](C)C[C@@H]1C)[C@H](C)[C@H](O)[C@H]3C)O2`: the results for the IC50 entry against Bcl-2-like protein 1 [2] and in the series on A549 were “Not Active” and 9 µM, respectively.
`CC1=C2O[C@]34OC5(CCCCC5)O[C@@H]3C2=C(C(=O)C1=O)[C@@H]1O[C@H](CC[C@H](C)/C=C(\C)C[C@@H](C)C[C@@H]4C)[C@H](C)[C@H](O)[C@H]1C`: the half-maximal inhibitory concentration (IC50) result was “Not Active” against Bcl-2-like protein 1 [2] and 24 µM with A549.
